The test system of test [1] is HT-29 cells. As to the kind of experiment: Combined use of VST and cisplatin, colony-forming ability of HT-29 cells. Type of test: cell-based. To be noted: glucose starvation condition. An excerpt: Enhancement of endoplasmic reticulum stress response promotes survival of cells under undernutritive conditions, and at the same time allows cells to acquire resistance to antitumor agents. Therefore, the inventors intended to examine the effect of VST on known antitumor agents. […] Therefore, the combined effect with other pharmaceutical agents could not be duly examined. Thus, cisplatin generally used for solid cancer treatment was used to examine the combined effect, due to its activity on cancer cells that is maintained even under low glucose conditions. Specifically, HT-29 cells were cultured by the above-mentioned method, pretreated for 30 min with VST, and then cultured for 18 hours. The cells were then treated for 4 hours with each concentration of cisplatin, and a week later their colony-forming ability was examined.

The subject of test [2] is HT-29 cells. As to the kind of experiment: Antitumor effect against HT-29 cells transplanted into nude mice. The class given is in vivo. The note with it: HT-29 tumor grown to 100 mm^3 in nude mice; VST through the tail vein (FIG. 15). The method, then:
The antitumor effect of VST at the animal level was examined. Specifically, HT-29 cells were transplanted into nude mice and tumor was grown to 100 mm^3. Subsequently, each concentration of VST was administered through the tail vein, progress of cancer was followed each day thereafter, and the tumor was enucleated to compare its size. […] Furthermore, the combined effect with CDDP (cisplatin) was examined.

As to `N.N.[Cl][Pt][Cl]` [cisplatin, reference compound], the “activity on colony-forming ability under glucose starvation condition” value with HT-29 cells [1] was “enhance the activity”. The “antitumor effect (tumor size)” value in the test with HT-29 cells [2] is “sufficient”.

These data come from patent publication US7358233B2, “Tetronic acid derivative” (Toudai TLO, Ltd, priority 2001, dated 2008).
